Data reported in BindingDB's records for doi:10.7270/Q2N014W6 (Burnham Center for Chemical Genomics, 2008).

What follows are molecules tested against T1, Bcl-2-related protein A1 (Mus musculus, UniProt Q07440) (assay: Bfl-1 inhibitors, primary screen, biochemical, fluorescence polarization, FITC-Bid, mouse (AID 432)). Conditions: pH 7; 23 °C.
T1 sequence (Q07440 whole entry): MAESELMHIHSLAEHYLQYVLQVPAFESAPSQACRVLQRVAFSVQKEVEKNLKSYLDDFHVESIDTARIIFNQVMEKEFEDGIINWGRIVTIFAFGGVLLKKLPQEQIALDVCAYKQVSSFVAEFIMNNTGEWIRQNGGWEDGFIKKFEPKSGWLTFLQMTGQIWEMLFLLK

Row | SMILES | IC50
1 | OCCCc1nc2n(n1)C(c1cccs1)CC(c1ccccc1)=N2 (stereo not drawn) [3-(5-phenyl-7-thiophen-2-yl-1,7-dihydro-[1,2,4]triazolo[1,5-a]pyrimidin-2-yl)-1-propanol] | > 100 µM
2 | O=C1C(=O)N(c2ncccn2)C(c2cccc(Cl)c2)C1C(=O)c1ccco1 (stereo not drawn) [2-(3-chlorophenyl)-3-(furan-2-carbonyl)-4-hydroxy-1-pyrimidin-2-yl-2H-pyrrol-5-one] | > 100 µM
3 | COc1ccc(N2C(=O)C(=Nc3c(C)n(C)n(-c4ccccc4)c3=O)C(Cl)C2=O)cc1 (stereo not drawn) [3-chloranyl-4-[(1,5-dimethyl-3-oxidanylidene-2-phenyl-pyrazol-4-yl)amino]-1-(4-methoxyphenyl)pyrrole-2,5-dione] | > 100 µM
4 | CCCN1CCC2=C(C#N)C(=N)C(C#N)(C#N)C(c3cccc(OC)c3OC)C2C1 (stereo not drawn) [6-amino-8-(2,3-dimethoxyphenyl)-2-propyl-1,3,8,8a-tetrahydroisoquinoline-5,7,7-tricarbonitrile] | > 100 µM
5 | c1ccc(-c2ccc(C3=Nc4ncnn4C(c4ccco4)C3)cc2)cc1 (stereo not drawn) | > 100 µM

More lines, now with the values ahead:

Row | IC50 | SMILES
6 | > 100 µM | CN1CCC2=C(C#N)C(=N)C(C#N)(C#N)C(c3cccc(Cl)c3Cl)C2C1 (stereo not drawn) [6-azanyl-8-[2,3-bis(chloranyl)phenyl]-2-methyl-1,3,8,8a-tetrahydroisoquinoline-5,7,7-tricarbonitrile]
7 | > 100 µM | Cc1ccc(C2C3CN(C(C)C)CCC3=C(C#N)C(=N)C2(C#N)C#N)cc1 (stereo not drawn) [SMR000034220]
8 | > 100 µM | CN1CCC2=C(C#N)C(=N)C(C#N)(C#N)[C@H](c3cccc(Cl)c3)C2C1 (stereo partly drawn) [(8S)-6-amino-8-(3-chlorophenyl)-2-methyl-1,3,8,8a-tetrahydroisoquinoline-5,7,7-tricarbonitrile]
